Data as given in PubChem BioAssay (NCI).
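Values below derive from 48-hour exposures of cells grown in 96-well plates, with endpoints linearly interpolated between the two concentrations bracketing the appropriate inhibition level. At the TGI there is no net growth.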

Assays:
Assay in all cases: NCI tumour cell line growth inhibition, 48 h
CCRF-CEM leukemia = test system: CCRF-CEM leukemia
TK-10 renal = test system: TK-10 renal
MDA-N = test system: MDA-N
SK-MEL-5 melanoma = test system: SK-MEL-5 melanoma
A549 NSCLC = test system: A549 NSCLC
HL-60(TB) leukemia = test system: HL-60(TB) leukemia
ACHN renal = test system: ACHN renal
HCT-15 colon = test system: HCT-15 colon
NCI-H460 lung = test system: NCI-H460 lung
KM12 colon = test system: KM12 colon
EKVX NSCLC = test system: EKVX NSCLC
K-562 leukemia = test system: K-562 leukemia
M14 melanoma = test system: M14 melanoma
OVCAR-5 ovarian = test system: OVCAR-5 ovarian
SNB-75 CNS = test system: SNB-75 CNS
OVCAR-4 ovarian = test system: OVCAR-4 ovarian
RPMI-8226 leukemia = test system: RPMI-8226 leukemia
HCT-116 colon = test system: HCT-116 colon
COLO 205 colon = test system: COLO 205 colon
SNB-19 CNS = test system: SNB-19 CNS
NCI/ADR-RES ovarian = test system: NCI/ADR-RES ovarian
U251 CNS = test system: U251 CNS
SN12C renal = test system: SN12C renal
NCI-H522 lung = test system: NCI-H522 lung
786-0 renal = test system: 786-0 renal
MDA-MB-231 breast = test system: MDA-MB-231 breast
SR leukemia = test system: SR leukemia
SF-295 CNS = test system: SF-295 CNS
OVCAR-8 ovarian = test system: OVCAR-8 ovarian
HS 578T breast = test system: HS 578T breast
T-47D breast = test system: T-47D breast
UACC-257 melanoma = test system: UACC-257 melanoma
IGROV1 ovarian = test system: IGROV1 ovarian
HCC-2998 colon = test system: HCC-2998 colon
HOP-62 NSCLC = test system: HOP-62 NSCLC
MCF7 breast = test system: MCF7 breast
MOLT-4 leukemia = test system: MOLT-4 leukemia
PC-3 prostate = test system: PC-3 prostate
UO-31 renal = test system: UO-31 renal
MDA-MB-435 = test system: MDA-MB-435
SK-MEL-28 melanoma = test system: SK-MEL-28 melanoma
SF-539 CNS = test system: SF-539 CNS
SK-OV-3 ovarian = test system: SK-OV-3 ovarian
SW-620 colon = test system: SW-620 colon
SF-268 CNS = test system: SF-268 CNS
UACC-62 melanoma = test system: UACC-62 melanoma
RXF 393 renal = test system: RXF 393 renal
SK-MEL-2 melanoma = test system: SK-MEL-2 melanoma
OVCAR-3 ovarian = test system: OVCAR-3 ovarian
HOP-92 NSCLC = test system: HOP-92 NSCLC
NCI-H23 lung = test system: NCI-H23 lung
CAKI-1 renal = test system: CAKI-1 renal
DU-145 prostate = test system: DU-145 prostate
HT29 colon = test system: HT29 colon
LOX IMVI melanoma = test system: LOX IMVI melanoma
MALME-3M melanoma = test system: MALME-3M melanoma
NCI-H226 lung = test system: NCI-H226 lung

Measured: TGI

Nc1ccc(Sc2nnc(N)s2)cc1
not listed: UACC-62 melanoma | RXF 393 renal | SK-MEL-2 melanoma | OVCAR-3 ovarian | HOP-92 NSCLC | NCI-H23 lung | CAKI-1 renal | DU-145 prostate | HT29 colon | LOX IMVI melanoma | MALME-3M melanoma | NCI-H226 lung
> 100 µM: all other assays above

NC(C/C=C/P(=O)(O)O)C(=O)O (stereo unspecified)
32.8 µM: CAKI-1 renal
not listed: RPMI-8226 leukemia | 786-0 renal | HOP-62 NSCLC | MALME-3M melanoma | NCI-H226 lung
> 100 µM: all other assays above

CCn1cc(C(=O)O)c(=O)c2ccc(C)nc21
not listed: SK-OV-3 ovarian | UACC-62 melanoma | RXF 393 renal
> 100 µM: all other assays above
